From ChEMBL document CHEMBL5550221, “Dual 5-HT2A and 5-HT2C Receptor Inverse Agonist That Affords In Vivo Antipsychotic Efficacy with Minimal hERG Inhibition for the Treatment of Dementia-Related Psychosis” (J Med Chem, 2024) come the findings set out here.

Calls of active or inactive are those of the source. No cut-off for these calls is given here.

Data set [1] is described as follows: Dissociation constant, pKa of the compound in DMSO solution by capillary electrophoresis. Type of data set: physicochemical.
The nature of a further data set: physchem. The settings on record: 1-octanol/phosphate buffer, pH 7.4.
The nature of data set [2]: in vitro. As to conditions: human, liver microsomes. (Microsomes from liver hold many membrane-bound enzymes, among them those of drug oxidation.)
Description: Metabolic stability in human liver microsomes assessed as compound remaining measured after 30 mins
A short description of data set [3]: in vitro. As to conditions: rat, liver microsomes.
Description: Metabolic stability in rat liver microsomes assessed as compound remaining measured after 30 mins
For data set [4], the system named is Rattus norvegicus. Description: Induction of dialysate dopamine level in male Wistar rat prefrontal cortex at 3 to 10 mg/kg, sc measured upto 120 mins after treatment by microdialysis study. Type of data set: functional, organism-based. The settings on record: dose 3-10 mg/kg.
For data set [5], the system named is Rattus norvegicus. Description: Antipsychotic efficacy against MK-801-induced locomotor hyperactivity rat model assessed as reduction in locomotor activity at 30 mg/kg, sc pretreated for 45 mins before MK-801 challenge measured after 15 mins. Type of data set: functional, organism-based. The settings on record: time 60.0 min.
The test system of data set [6] is Rattus norvegicus. Description: In vivo receptor occupancy at 5-HT2A receptor in sc dosed Wistar rat brain in presence of MDL-100907 non-radiolabeled tracer measured pretreated for 45 mins before MDL-100907 challenge measured after 15 mins. Format: functional, organism-based. The settings on record: dose 0.1-30 mg/kg, time 60.0 min.
The subject of data set [7] is Rattus norvegicus. Description: Induction of dialysate dopamine level in male Wistar rat prefrontal cortex at 30 mg/kg, sc measured upto 120 mins after treatment by microdialysis study. Type of data set: functional, organism-based.
In data set [8] the test system is Rattus norvegicus. Description: Induction of dialysate dopamine level in male Wistar rat prefrontal cortex at 3 mg/kg, sc measured upto 120 mins after treatment by microdialysis study. Format: functional, organism-based.
The test system of data set [9] is Rattus norvegicus. Description: Induction of dialysate dopamine level in male Wistar rat prefrontal cortex at 10 mg/kg, sc measured upto 120 mins after treatment by microdialysis study. Format: functional, organism-based.

By logD is commonly meant lipophilicity at a set pH, counting ionised and neutral species. `CC(C)COc1ccc(CNC(=O)N(Cc2ccc(F)cc2)[C@H]2CCN(C)CC23CC3)cc1` gave a pKa in data set [1] of 8.7. This molecule gave a logD in “physchem” of 3. In addition, the amount remaining at 0.5 h in “in vitro [2]” and in “in vitro [3]” was 48% in each case.

On to `Cc1cc2c(cc1Cl)N(C(=O)Nc1ccc(Oc3cccnc3C)nc1)CC2`, for which the outcome in the data set with Rattus norvegicus [4] was Active.

As for `CC(C)COc1ccc(CNC(=O)N(Cc2ccc(F)cc2)[C@H]2CCN(C)C[C@H]2F)cc1`, the pKa in [1] worked out at 7.2. In addition, in the data set “physchem”, the logD came out at 4. Moreover, the amount remaining at 0.5 h was determined as 34% in the data set “in vitro [2]” and 27% in “in vitro [3]”.

Molecule `CC(C)COc1ccc(CNC(=O)N(Cc2ccn(C)n2)[C@H]2CCN(C)CC23CC3)cc1` returned a logD in the data set “physchem” of 1.7. Moreover, the results for the amount remaining at 0.5 h in “in vitro [2]” and in the data set “in vitro [3]” were 88% and 47%, respectively.

As to `CC(C)COc1ccc(CNC(=O)N(Cc2ccc(F)cc2)[C@H]2CCN(C)C[C@@H]2F)cc1`, the pKa in data set [1] turned out to be 6.2. In the data set “physchem”, the logD came to 4.9. In addition, the fraction remaining at 0.5 h in “in vitro [2]” was found to be 7.9%; in the data set “in vitro [3]” it was 6.1%.

As to `CCCOc1ccc(CNC(=O)N(Cc2ccn(C)n2)C2CCN(C)CC2)cc1`, the logD in the data set “physchem” was 1.2. Also, the amount remaining at 0.5 h in “in vitro [2]” is 102%; in the data set “in vitro [3]”, 92%.

As for `CC(C)COc1ccc(CNC(=O)N(Cc2ccc(F)cc2)C2CCN(C)CC2)cc1` [PIMAVANSERIN], the outcome with Rattus norvegicus [5] and in the data set with Rattus norvegicus [7] was Active. Besides, the Activity result with Rattus norvegicus [6] was “Dose-Dependent Effect”. In addition, the outcome in the data set on Rattus norvegicus [8] and in the data set on Rattus norvegicus [9] was inactive. The molecule further returned a pKa in [1] of 8.4. This molecule also came in with a logD in “physchem” of 2.8. The amount remaining at 0.5 h was determined as 89% in the data set “in vitro [2]” and 90% in the data set “in vitro [3]”.

In “physchem”, `CC(C)COc1ccc(CNC(=O)N(Cc2ccc(F)cn2)[C@H]2CCN(C)CC23CC3)cc1` registered a logD of 2.5. Besides, the values for the amount remaining at 0.5 h in the data set “in vitro [2]” and in the data set “in vitro [3]” were 68% and 64%, respectively.
